Among the data in patent US5264427A, “20-substituted pregnene derivatives and their use as androgen synthesis inhibitors” (priority 1992, dated 1993) are inhibition values, retold here.

Read-outs that look alike come from different tables or passages of the source.

This assay deals with T1, rat testicular 17(alpha)-hydroxylase/C17,20-lyase (Rattus norvegicus, UniProt P11715).
T1 construct: rat testicular homogenates (prepared from 220-250g adult male Sprague-Dawley rats); from tissue; host or cells: testes of adult male Sprague-Dawley rats, homogenate
T1 sequence (P11715 1-507): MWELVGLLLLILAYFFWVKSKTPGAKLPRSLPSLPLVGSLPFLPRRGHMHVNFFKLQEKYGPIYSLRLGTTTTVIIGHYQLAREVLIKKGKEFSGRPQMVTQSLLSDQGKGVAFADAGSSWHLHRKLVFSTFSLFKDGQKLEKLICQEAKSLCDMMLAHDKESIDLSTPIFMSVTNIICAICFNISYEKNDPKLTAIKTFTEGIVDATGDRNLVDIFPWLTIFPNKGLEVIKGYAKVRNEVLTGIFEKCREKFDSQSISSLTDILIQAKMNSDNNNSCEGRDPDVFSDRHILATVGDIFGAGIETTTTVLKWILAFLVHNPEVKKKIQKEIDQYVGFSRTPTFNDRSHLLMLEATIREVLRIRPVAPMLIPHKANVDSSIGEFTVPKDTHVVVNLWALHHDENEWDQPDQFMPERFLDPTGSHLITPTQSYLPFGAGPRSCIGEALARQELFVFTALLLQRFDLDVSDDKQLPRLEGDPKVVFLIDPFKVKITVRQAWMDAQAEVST
As to the kind of experiment: Hydroxylase/lyase assay, rat testicular homogenates, [21-14C]progesterone (Example 4, Table 3). The class given is biochemical. The note with it: 0.75 h. On the procedure: The assay was performed by incubation of rat testicular homogenates (prepared from 220-250g adult male Sprague-Dawley rats, approx. 3.5 mg protein) with [21-^14 C]progesterone (40uM, 5×10^4 dpm), NADPH generating system and candidate inhibitors in phosphate buffer (pH 7.4, total volume 500ul) under oxygen for 45 min at 37° C. Two ml of choloroform was added to each tube to stop the reaction. The steriods were extracted with chloroform and the aqueous phase was treated with charcoal. The side chain cleavage product [2-^14 C]acetic acid in the aqueous phase was mixed with 3a70B counting cocktail and counted on the Rack Beta II liquid scintillation counter. The enzyme activity was determined from the conversion of progesterone P4 to [2-^14 C]acetic acid.

The mark [1] stands for this setting: pH 7.4, read-out: Inhibition of 17(alpha)-hydroxylase/C17,20-lyase (%), [I] = 10 × [S].
[2] abbreviates: pH 7.4, read-out: Inhibition of 17(alpha)-hydroxylase/C17,20-lyase (%), [I] = [S].
Setting [3] is: [I] = 10 × [S], progesterone 40uM, pH 7.4, 45 min, 37 C, read-out: Inhibition of 17(alpha)-hydroxylase/C17,20-lyase (%), [I] = 10 × [S].
Where [4] appears, read: [I] = [S], progesterone 40uM, pH 7.4, 45 min, 37 C, read-out: Inhibition of 17(alpha)-hydroxylase/C17,20-lyase (%), [I] = [S].

In the case of `C[C@]12CC[C@H]3[C@@H](CC=C4C[C@@H](O)CC[C@@]43C)[C@@H]1CC[C@@H]2[C@]1(C)CO1` [Compound I-7, (20R)-20,21-epoxy-20-methyl-5-pregnen-3(beta)ol], the inhibition at 400 µM under setting [1] is 28.3%. Moreover, the inhibition at 40 µM under setting [2] amounted to 21.6%.

For the compound `C[C@@H](N)[C@H]1CC[C@H]2[C@@H]3CC=C4C[C@@H](O)CC[C@]4(C)[C@H]3CC[C@]12C` [Compound I-10], the inhibition at 400 µM under setting [1] is 33.8%. In addition, the inhibition at 40 µM under setting [2] was 8.54%.

`CC(=O)[C@@]12O[C@@H]1C[C@H]1[C@@H]3CCC4=CC(=O)CC[C@]4(C)[C@H]3CC[C@@]12C` [Compound I-18]: the inhibition at 400 µM under setting [3] worked out at 64.2%. Further, under setting [4], the inhibition at 40 µM is 26.5%.

Regarding `C[C@]12CC[C@H]3[C@@H](CC=C4C[C@@H](O)CC[C@@]43C)[C@@H]1CC[C@@H]2[C@@]1(C)CO1` [Compound I-8, (20S)-20,21-epoxy-20-methyl-5-pregnen-3(beta)-ol], the inhibition at 400 µM under setting [1] is 29.4%. Under setting [2], the inhibition at 40 µM was 16.3%.

As for `CC(=O)OC1=CC2=CC[C@H]3[C@@H]4CC[C@H]([C@H](C)C#N)[C@@]4(C)CC[C@@H]3[C@@]2(C)CC1` [Compound I-24], the inhibition at 400 µM under setting [3] is 67.2%. For the same compound, the inhibition at 40 µM under setting [4] amounted to 33.6%.

For the compound `C=C[C@H]1CC[C@H]2[C@@H]3CC=C4C[C@@H](O)CC[C@]4(C)[C@H]3CC[C@]12C` [Compound I-28], the inhibition at 400 µM under setting [1] worked out at 18.3%. The inhibition at 40 µM under setting [2] is 13.5%.

On to `CC(C#N)=C1CC[C@H]2[C@@H]3CCC4=CC(=O)CC[C@]4(C)[C@H]3CC[C@]12C` [Compound I-26, 20-cyano-4,17(20)-pregnadien-3-one], for which, under setting [1], the inhibition at 400 µM is 89.7%. Also, under setting [2], the inhibition at 40 µM stood at 53.5%.

Take `C[C@H](C=NN(C)C)[C@H]1CC[C@H]2[C@@H]3CCC4=CC(=O)CC[C@]4(C)[C@H]3CC[C@]12C` [Compound I-15, 4-pregnen-3-oxo-20(beta)-carboxaldehyde N,N-dimethyl hydrazone]: under setting [3], the inhibition at 400 µM was determined as 52.7%. Under setting [4], the inhibition at 40 µM was determined as 22.4%.

In the case of `CC(=NO)C1=CC[C@H]2[C@@H]3CC=C4C[C@@H](O)CC[C@]4(C)[C@H]3CC[C@]12C` [Compound I-5], the inhibition at 400 µM under setting [1] worked out at 51.8%. Further, the inhibition at 40 µM under setting [2] is 25.2%.

As to `CC(=NN(C)C)C1=CC[C@H]2[C@@H]3CC=C4C[C@@H](O)CC[C@]4(C)[C@H]3CC[C@]12C` [Compound I-14, 5,16-Pregnadien-3(beta)-ol-20-one N,N-dimethyl hydrazone], the inhibition at 400 µM under setting [3] is 2.34%. The inhibition at 40 µM under setting [4] was 10.2%.

With `C#C[C@H]1CC[C@H]2[C@@H]3CC=C4C[C@@H](O)CC[C@]4(C)[C@H]3CC[C@]12C` [Compound I-29], the inhibition at 400 µM under setting [1] was determined as 3.84%. Further, the inhibition at 40 µM under setting [2] worked out at 8.26%.

Regarding `C[C@H](N)[C@H]1CC[C@H]2[C@@H]3CC=C4C[C@@H](O)CC[C@]4(C)[C@H]3CC[C@]12C` [Compound I-9], the inhibition at 400 µM under setting [1] was determined as 27.3%. In addition, the inhibition at 40 µM under setting [2] turned out to be 13.6%.

On to `CC(=NN)[C@H]1CC[C@H]2[C@@H]3CC=C4C[C@@H](O)CC[C@]4(C)[C@H]3CC[C@]12C` [Compound I-12], for which, under setting [3], the inhibition at 400 µM was found to be 25.9%. Besides, the inhibition at 40 µM under setting [4] was 8.55%.

As to `CC(=NO)[C@H]1CC[C@H]2[C@@H]3CC=C4C[C@@H](O)CC[C@]4(C)[C@H]3CC[C@]12C` [Compound I-1], the inhibition at 400 µM under setting [1] turned out to be 29.2%. Also, the inhibition at 40 µM under setting [2] stood at 15%.
